Values quoted from earlier work as cited in article PMC8309005, “Novel Non-Congeneric Derivatives of the Choline Kinase Alpha Inhibitor ICL-CCIC-0019” (Pharmaceutics, 2021).
Where two headings read alike, the source gives them in different places.

How the values were obtained:
[1] = tested on: MCF-10A and ST-T1B (2 normal cell lines); settings: read-out: GI50 range of 2 normal cell lines (MCF-10A and ST-T1B); cited from earlier work
[2] = tested on: HCT-116; settings: cited from earlier work
[3] = tested on: 8 cancer cell lines; set-up: method as in PMID 27206796; settings: cited from earlier work
[4] = tested on: HCT116 xenografts; settings: cited from earlier work
[5] = tested on: A549; settings: cited from earlier work
[6] = tested on: Δ49N CHKA2 (recombinant CHKA2); settings: read-out: IC50 Δ49N CHKA2; cited from earlier work

In the case of `CN(C)c1cc[n+](CCCCCCCCCCCC[n+]2ccc(N(C)C)cc2)cc1` [ICL-CCIC-0019], the GI50 [1] is given as 30 to 120 µM, the GI50 [2] is given as 0.64 µM and the GI50 ([3]; read-out: GI50 range of 8 cancer cell lines) is given as 0.38 to 2.7 µM. The GI50 ([3]; read-out: mean GI50 of 8 cancer cell lines) was 1.09 µM, the “in vivo anti-tumor activity (in words)” value [4] was “potent in vivo anti-tumor activity” and the “body weight effect (in words)” value ([4]; in vivo) was “slight reduction in body weight”. The GI50 [5] was 0.38 µM and the IC50 [6] was 0.27 ± 0.06 µM.
